Source: PMC11434026, “Development and Validation of an LC-MS/MS Assay for the Quantitation of MO-OH-Nap Tropolone in Mouse Plasma: Application to In Vitro and In Vivo Pharmacokinetic Studies” (Molecules, 2024)
“And” between values parts separate entries of the source, which are not always exact repeats. Identical values can stand only once. Like-named read-outs stand apart in the source and are kept apart here.

How the values were obtained:
[1] = Thermodynamic aqueous solubility in PBS; type: physicochemical
Experimental: After completion of incubation, the microcentrifuge tube was centrifuged at 10,000× g for 10 min. The supernatant (100 μL) was mixed with an equal volume of ACN and centrifuged again at 10,000× g for 10 min. The supernatant was further diluted 80× times with mobile phase and transferred to autosampler vials and analyzed by LC-MS/MS.

[2] = In vitro metabolic stability in mouse liver microsomes; type: in vitro ADME; conditions: MLM
Experimental: (§1) Metabolic stability was assessed using mouse, rat, and human liver microsomes (XenoTech, LLC, Lenexa, KS, USA) for phase I metabolism. Briefly, A reaction solution was prepared by mixing […] of PBS (100 mM, pH 7.4), 25 µL of microsomal protein (20 mg/mL), MgCl2 (5 µL; 10 mM), and 50 µL of NADPH (2 mM). The final volume (0.5 mL) was pre-incubated for 10 min in a 37 °C water bath at 60 rpm. An aliquot of MO-OH-Nap (2 µL from 1 µg/mL stock) was spiked into the above solution to initiate the reaction. Aliquots of (50 µL) were collected at time intervals (0, 5, 15, 20, 30, 45, and 60 min) and quenched with 300 µL of ACN, […]. Afterwards, 10 µL of IS stock (1.0 µg/mL) was spiked in each sample then vortexed (5 min) and centrifuged at 10,800 rpm (13,000× g) for 15 min. Samples were vortexed and centrifuged at 10,800 rpm (13,000× g) for 15 min, the supernatant was collected and transferred to an HPLC vial and 10 µL were injected into the LC-MS/MS system. Testosterone and diclofenac were used as positive and negative controls to ensure that liver microsomes and incubation conditions were appropriate for conducting metabolism studies.

[3] = Stability in mouse plasma at storage and use conditions; type: physicochemical
Experimental: The chemical stability of MO-OH-Nap and IS in plasma samples were assessed at LQC, MQC, and HQC concentrations, n = 3, under the following storage conditions: bench-top storage (up to 6 h at room temperature, 21 ± 0.5 °C), three freeze–thaw cycles (−80 ± 0.5 °C to room temperature for 30 min, back to −80 ± 0.5 °C then stored for 24 h, the cycle was repeated twice more), long-term storage (12 months at −80 ± 0.5 °C), and 24 h auto-sampler stability of extracted samples (at 4 ± 0.5 °C).

[4] = In vitro metabolic stability in rat liver microsomes; type: in vitro ADME; conditions: RLM
Experimental: as §1

[5] = In vitro metabolic stability in human liver microsomes; type: in vitro ADME; conditions: HLM
Experimental: as §1

[6] = Tissue distribution after single IP dose in CD-1 mice; type: in vivo, mouse; conditions: for concentration at 2 h: female, CD-1, mouse, 2 h after single IP 5 mg/kg
Experimental: MO-OH-Nap was dissolved in a 5% DMSO, 45% w/v hydroxypropyl-β-cyclodextrin solution in PBS (final concentration 0.625 mg/mL MO-OH-Nap). MO-OH-Nap (5 mg/kg) was administered IP. After dosing, approximately 100 µL of blood was collected in Lithium-Heparin-Microvette 300 µL Capillary Blood Collection Tube (SARSTEDT AG& Co., Nümbrecht, Germany) from the maxillary vein at 5, 15, 30 min and 1, 2, 4, 6, 8, 24, and 48 h. Two blood time points were collected from every mouse and the third time point was the terminal time point, for a total of three time points from each mouse (5 mice/group/per time point). Blood was centrifuged at 4000× g at 4 °C for 10 min to extract plasma. The collected plasma samples were stored at −80 °C until analysis. The specified tissues including liver, lungs, kidney, spleen, heart, and brain were collected at terminal times of 2, 8, 24 and 48 h after dosing. Tissue samples were rinsed with PBS to remove excess blood and blotted with filter paper. After weighing, each tissue sample was individually homogenized with de-ionized water using a TissueLyser II (Qiagen Science, Louisville, KY, USA). A dilution factor of five was used for liver, spleen, brain, lungs, and kidney while the heart was homogenized at a 6-fold dilution factor. All tissues were stored at −80 °C until analysis. Plasma concentrations (ng/mL) and tissue concentrations (ng/g) were determined for each time point collected using LC-MS/MS analysis.

[7] = autosampler 4 °C, up to 24 h, extracted samples, HQC 375 ng/mL
[8] = autosampler 4 °C, up to 24 h, extracted samples, LQC 3 ng/mL
[9] = autosampler 4 °C, up to 24 h, extracted samples, MQC 200 ng/mL
[10] = bench-top 21 °C, up to 6 h, HQC 375 ng/mL
[11] = bench-top 21 °C, up to 6 h, LQC 3 ng/mL
[12] = bench-top 21 °C, up to 6 h, MQC 200 ng/mL
[13] = freeze-thaw −80 °C, 3 cycles, HQC 375 ng/mL
[14] = freeze-thaw −80 °C, 3 cycles, LQC 3 ng/mL
[15] = freeze-thaw −80 °C, 3 cycles, MQC 200 ng/mL
[16] = long-term −80 °C, 12 months, HQC 375 ng/mL
[17] = long-term −80 °C, 12 months, LQC 3 ng/mL
[18] = long-term −80 °C, 12 months, MQC 200 ng/mL

## O=c1c(O)ccccc1-c1ccc2ccccc2c1 [MO-OH-Nap, MO-OH-Nap tropolone]
[1]; PBS pH 7.4
  solubility class per USP: partially soluble and very slightly soluble
[1]; phosphate buffered saline (PBS), PBS pH 7.4, 24 h
  solubility at 24 h: 20.2 µg/mL and 80.1 µM
[2]; NADPH, 60 min
  metabolic depletion: < 15%
[2]; all time points to 60 min
  parent drug remaining: > 95%
[3]; [7]
  % Accuracy: 90.7 ± 5.3%
  Measured Mean Conc.: 340.2 ± 20.1 ng/mL
[3]; [8]
  % Accuracy: 101.9 ± 5.8%
  Measured Mean Conc.: 3.1 ± 0.2 ng/mL
[3]; [9]
  % Accuracy: 90.1 ± 0.6%
  Measured Mean Conc.: 180.2 ± 1.10 ng/mL
[3]; [10]
  % Accuracy: 101.5 ± 5.6%
  Measured Mean Conc.: 380.5 ± 20.9 ng/mL
[3]; [11]
  % Accuracy: 107.8 ± 14.8%
  Measured Mean Conc.: 3.2 ± 0.5 ng/mL
[3]; [12]
  % Accuracy: 95.8 ± 9.1%
  Measured Mean Conc.: 191.6 ± 18.1 ng/mL
[3]; [13]
  % Accuracy: 88.6 ± 4.7%
  Measured Mean Conc.: 332.2 ± 17.6 ng/mL
[3]; [14]
  % Accuracy: 100.5 ± 13.3%
  Measured Mean Conc.: 3.0 ± 0.4 ng/mL
[3]; [15]
  % Accuracy: 84.0 ± 0.9%
  Measured Mean Conc.: 167.9 ± 1.8 ng/mL
[3]; [16]
  % Accuracy: 92.7 ± 0.4%
  Measured Mean Conc.: 347.4 ± 1.5 ng/mL
[3]; [17]
  % Accuracy: 95.6 ± 2.4%
  Measured Mean Conc.: 2.9 ± 0.1 ng/mL
[3]; [18]
  % Accuracy: 99.8 ± 0.6%
  Measured Mean Conc.: 199.5 ± 1.3 ng/mL
[4]; NADPH, 60 min
  metabolic depletion: < 15%
[4]; all time points to 60 min
  parent drug remaining: > 95%
[5]; NADPH, 60 min
  metabolic depletion: < 15%
[5]; all time points to 60 min
  parent drug remaining: > 95%
[6]; 48 h after single IP 5 mg/kg
  detection in all harvested tissue: detected
[6]; brain, read-out: tissue concentration, brain
  concentration at 2 h: 51 ng/g
[6]; heart, read-out: tissue concentration, heart
  concentration at 2 h: 115 ng/g
[6]; kidney, read-out: tissue concentration, kidney
  concentration at 2 h: 750 ng/g
[6]; liver, read-out: tissue concentration, liver
  concentration at 2 h: 1390 ng/g
[6]; lungs, read-out: tissue concentration, lungs
  concentration at 2 h: 181 ng/g
[6]; spleen, read-out: tissue concentration, spleen
  concentration at 2 h: 745 ng/g
